In one data set the test system is TNFα released by PBMCs. Nature of the data set: Inhibition of TNFα released by PBMCs after LPS stimulation in vitro (ELISA). The data set is classed as cell-based, human. The note with it: Homo sapiens, PBMC; concentration giving 50% TNFα inhibition, LPS-stimulated PBMCs, nonlinear regression. The source says: Pharmacological Research: Effects of Monocyte (PBMC) Stimulation by LPS on TNFα
Cytokine TNFα released by PBMCs in peripheral blood after lip polysaccharide (LPS) stimulation in vitro was studied. The followings are research methods of cytokine TNFα released by PBMCs, which are inhibited by compounds of the invention.
PBMCs were obtained from blood of at least three volunteers after heparin treatment, by the method of gradient extraction. PBMCs were collected and washed with 1640 culture medium three times (10% calf serum, 2 mM L-glutamine, […] mercaptoethanol, 50 μg/ml streptomycin, 50 U/ml penicillin). The above PBMCs were placed onto a 24-well cell culture plate. The concentration was adjusted to 1×10^6 cells/ml with 1640 culture medium. Test compounds were dissolved in dimethylsulfoxide at an appropriate concentration. The resultant solution was added to the above cell culture medium and the culture plate was placed in a CO2 incubator (5% CO2, 90% humidity) for 1 hour. Then, LPS (Sigma) was added to adjust the concentration to 0.1 μg/ml (except for contrast). After 20 hrs of incubation, the content of TNFα in supernatant of the above PBMC culture medium was determined by ELISA kit (America Genzyme Co) using standard method. The measured value of the control (no active compound), and the measured value of the tested compounds was used to calculate the TNFα inhibition rate. The concentration of compounds giving a 50% TNFα inhibition (IC50 value) was calculated by nonlinear regression analysis. Each concentration was determined twice and an average value was obtained.
(An ELISA detects its analyte on a solid surface through an enzyme-linked reagent.)
A word on the EC50: it is the concentration needed to bring the measured effect to its halfway point. For the compound `Nc1cccc2c1C(=O)N(C1CCC(=O)N(CCO)C1=O)C2=O` (stereo not drawn) [Example 26, 4-amino-2-(1-(2-hydroxyethyl)-2,6-dioxopiperidin-3-yl)isoindoline-1,3-dione], the EC50 worked out at 0.25 µM. The same measure, in the same setting: next, `COCCN1C(=O)CCC(N2C(=O)c3cccc(N)c3C2=O)C1=O` (stereo not drawn) [Example 27, 4-amino-2-(1-(2-methoxyethyl)-2,6-dioxopiperidin-3-yl)isoindoline-1,3-dione]: 0.3 µM.

The same data set, now with this note: Homo sapiens, PBMC; read-out: Inhibition Degree (%).
Usually inhibition stands for the relative decrease from the control value, in per cent. Consider `Nc1cccc2c1C(=O)N(C1CCC(=O)N(CCO)C1=O)C2=O` (stereo not drawn) [Example 26, 4-amino-2-(1-(2-hydroxyethyl)-2,6-dioxopiperidin-3-yl)isoindoline-1,3-dione], for which the inhibition at 3 µM came out at 95%. In the case of `O=C1CCC(N2C(=O)c3ccccc3C2=O)C(=O)N1` (stereo not drawn) [Thalidomide, reference compound], the inhibition at 100 µM amounted to 22%. For `O=C1CCC(N2C(=O)c3ccccc3C2=O)C(=O)N1CCCCO` (stereo not drawn) [Example 22, 2-(1-(4-hydroxybutyl)-2,6-dioxopiperidin-3-yl)isoindoline-1,3-dione], the inhibition at 3 µM amounted to 18%. On the same count and under the same terms, next, `COCCN1C(=O)CCC(N2C(=O)c3cccc(N)c3C2=O)C1=O` (stereo not drawn) [Example 27, 4-amino-2-(1-(2-methoxyethyl)-2,6-dioxopiperidin-3-yl)isoindoline-1,3-dione]: 92%. As to `COCCN1C(=O)CCC(N2C(=O)c3cccc(NC(C)=O)c3C2=O)C1=O` (stereo not drawn) [Example 28, N-(2-(1-(2-methoxyethyl)-2,6-dioxopiperidin-3-yl)-1,3-dioxoisoindolin-7-yl)acetamide], the inhibition at 3 µM was 78%. The same measure, in the same setting: next, `O=C1CCC(N2C(=O)c3cccc([N+](=O)[O-])c3C2=O)C(=O)N1CCO` (stereo not drawn) [Example 24, 2-(1-(2-hydroxyethyl)-2,6-dioxopiperidin-3-yl)-4-nitroisoindoline-1,3-dione]: 28%; `COCCN1C(=O)CCC(N2C(=O)c3cccc(N(C)C)c3C2=O)C1=O` (stereo not drawn) [Example 29, 4-(dimethylamino)-2-(1-(2-methoxyethyl)-2,6-dioxopiperidin-3-yl)isoindoline-1,3-dione]: 64%. Still for that read-out and setting: the result for `O=C1CCC(N2C(=O)c3ccccc3C2=O)C(=O)N1CCO` (stereo not drawn) [Example 1, 2-(1-(2-Hydroxyethyl)-2,6-dioxopiperidin-3-yl)isoindoline-1,3-dione] reads 70%.

The data set is the same for the next values; noted with them: TNFα inhibition rate, LPS 0.1 μg/ml-stimulated PBMCs, compound concentration 3.0 μM.
Turning to “4-fluoro-2-(1-(2-methoxyethyl)-2,6-dioxopiperidin-3-yl)-4-nitroisoindoline-1,3-dione [Example 30]”, the “Inhibition Degree (%)” value is 58%. Still for that read-out and setting: the result for `CCN(CC)CC(=O)OCCN1C(=O)CCC(N2C(=O)c3ccccc3C2=O)C1=O` (stereo not drawn) [Example 9, 2-(1-(2-hydroxyethyl)-2,6-dioxopiperidin-3-yl)isoindolin-1,3-dione 2-(diethylamino)acetate] reads 20%; that for “4,5,6,7-tetrafluoro-2-(1-(2-methoxyethyl)-2,6-dioxopiperidin-3-yl)-4-nitroisoindoline-1,3-dione [Example 31]”, 62%.

System in the next data set: not listed separately
Put plainly: Solubility in water. Format: physicochemical.
Conditions: not given
Take “2-(1-(2-hydroxyethyl)-2,6-dioxopiperidin-3-yl)isoindolin-1,3-dione 2-(1-piperidyl)acetate hydrochloride [Example 14]”: the Solubility in water entry is given as “more than 100 mg/mL”.

For the compound “2-(1-(2-hydroxyethyl)-2,6-dioxopiperidin-3-yl)isoindolin-1,3-dione 2-(diethylamino)acetate hydrochloride [Example 10]”, the Solubility in water entry is “higher than 100 mg/mL”.

For the origin of these results see patent publication US9669015B2, “Piperidine-2, 6-dione derivatives and their use as tumor necrosis factor inhibitors” (Tianjin Hemay Bio-Tech Co., Ltd., priority 2005, dated 2017).
